{"source": "the supplement of paper PMC10307832", "experiment_in_all_cases": "relative viability (nuclei count vs DMSO), 5 days (fraction); higher = more cells survive", "key": {"NCI-H661": {"system": "NCI-H661", "method_in_brief": "(§1)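 A single step with final 0.05% Triton X-100, 1% formaldehyde and 1 ug/ml Hoechst fixed the cells and stained nuclei 5 days after treatment. Lung cancer cell lines in 1536-well plates had been treated by pin tool the day after seeding with one drug alone or a fixed anchor-drug dose plus five library-drug doses (not always all listed) in √10 steps, and nuclei were counted on 4× images. Relative viability is the ratio of nuclei in treated wells to nuclei in vehicle wells, taken as the median of duplicate plates.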"}, "PC-14": {"system": "PC-14", "method_in_brief": "as §1"}, "ChaGo-K-1": {"system": "ChaGo-K-1", "method_in_brief": "as §1"}, "RERF-LC-KJ": {"system": "RERF-LC-KJ", "method_in_brief": "as §1"}, "NCI-H23": {"system": "NCI-H23", "method_in_brief": "as §1"}, "NCI-H2126": {"system": "NCI-H2126", "method_in_brief": "as §1"}, "LCLC-97TM1": {"system": "LCLC-97TM1", "method_in_brief": "as §1"}, "HCC-78": {"system": "HCC-78", "method_in_brief": "as §1"}, "NCI-H647": {"system": "NCI-H647", "method_in_brief": "as §1"}, "NCI-H2347": {"system": "NCI-H2347", "method_in_brief": "as §1"}, "NCI-H1666": {"system": "NCI-H1666", "method_in_brief": "as §1"}, "NCI-H2405": {"system": "NCI-H2405", "method_in_brief": "as §1"}, "EPLC-272H": {"system": "EPLC-272H", "method_in_brief": "as §1"}, "HCC-827": {"system": "HCC-827", "method_in_brief": "as §1"}, "NCI-H1915": {"system": "NCI-H1915", "method_in_brief": "as §1"}, "NCI-H522": {"system": "NCI-H522", "method_in_brief": "as §1"}, "NCI-H520": {"system": "NCI-H520", "method_in_brief": "as §1"}, "NCI-H650": {"system": "NCI-H650", "method_in_brief": "as §1"}, "H3255": {"system": "H3255", "method_in_brief": "as §1"}, "201T": {"system": "201T", "method_in_brief": "as §1"}, "NCI-H322M": {"system": "NCI-H322M", "method_in_brief": "as §1"}, "COR-L 105": {"system": "COR-L 105", "method_in_brief": "as §1"}, "LC-2-ad": {"system": "LC-2-ad", "method_in_brief": "as §1"}, "NCI-H2087": {"system": "NCI-H2087", "method_in_brief": "as §1"}}, "data": [{"smiles": "C[C@@H]1CN(CC(=O)Nc2ccc3c(c2)Cc2cccc(-c4cc(=O)cc(N5CCOCC5)o4)c2S3)C[C@H](C)O1", "note": "+ Cc1nc(Nc2ncc(C(=O)Nc3c(C)cccc3Cl)s2)cc(N2CCN(CCO)CC2)n1 [Dasatinib] (partner 0.075 µM)", "values": [{"measurement": "relative viability", "setting": "NCI-H661; first compound 0.04 µM", "result": 0.919}, {"measurement": "relative viability", "setting": "NCI-H661; first compound 0.1265 µM", "result": 0.881}, {"measurement": "relative viability", "setting": "NCI-H661; first compound 0.4 µM", "result": 0.968}, {"measurement": "relative viability", "setting": "NCI-H661; first compound 4 µM", "result": 0.797}, {"measurement": "relative viability", "setting": "PC-14; first compound 0.04 µM", "result": 0.286}, {"measurement": "relative viability", "setting": "PC-14; first compound 0.1265 µM", "result": 0.254}, {"measurement": "relative viability", "setting": "PC-14; first compound 0.4 µM", "result": 0.314}, {"measurement": "relative viability", "setting": "PC-14; first compound 4 µM", "result": 0.147}, {"measurement": "relative viability", "setting": "ChaGo-K-1; first compound 0.04 µM", "result": 0.603}, {"measurement": "relative viability", "setting": "ChaGo-K-1; first compound 0.1265 µM", "result": 0.617}, {"measurement": "relative viability", "setting": "ChaGo-K-1; first compound 0.4 µM", "result": 0.553}, {"measurement": "relative viability", "setting": "ChaGo-K-1; first compound 4 µM", "result": 0.524}, {"measurement": "relative viability", "setting": "RERF-LC-KJ; first compound 0.04 µM", "result": 0.877}, {"measurement": "relative viability", "setting": "RERF-LC-KJ; first compound 0.1265 µM", "result": 0.813}, {"measurement": "relative viability", "setting": "RERF-LC-KJ; first compound 0.4 µM", "result": 0.782}, {"measurement": "relative viability", "setting": "RERF-LC-KJ; first compound 4 µM", "result": 0.665}, {"measurement": "relative viability", "setting": "NCI-H23; first compound 0.04 µM", "result": 0.751}, {"measurement": "relative viability", "setting": "NCI-H23; first compound 0.1265 µM", "result": 0.751}, {"measurement": "relative viability", "setting": "NCI-H23; first compound 0.4 µM", "result": 0.711}, {"measurement": "relative viability", "setting": "NCI-H23; first compound 4 µM", "result": 0.735}, {"measurement": "relative viability", "setting": "NCI-H2126; first compound 0.04 µM", "result": 0.607}, {"measurement": "relative viability", "setting": "NCI-H2126; first compound 0.1265 µM", "result": 0.604}, {"measurement": "relative viability", "setting": "NCI-H2126; first compound 0.4 µM", "result": 0.467}, {"measurement": "relative viability", "setting": "NCI-H2126; first compound 4 µM", "result": 0.418}, {"measurement": "relative viability", "setting": "LCLC-97TM1; first compound 0.04 µM", "result": 0.839}, {"measurement": "relative viability", "setting": "LCLC-97TM1; first compound 0.1265 µM", "result": 0.744}, {"measurement": "relative viability", "setting": "LCLC-97TM1; first compound 0.4 µM", "result": 0.794}, {"measurement": "relative viability", "setting": "LCLC-97TM1; first compound 4 µM", "result": 0.893}, {"measurement": "relative viability", "setting": "HCC-78; first compound 0.04 µM", "result": 0.366}, {"measurement": "relative viability", "setting": "HCC-78; first compound 0.1265 µM", "result": 0.363}, {"measurement": "relative viability", "setting": "HCC-78; first compound 0.4 µM", "result": 0.362}, {"measurement": "relative viability", "setting": "HCC-78; first compound 4 µM", "result": 0.519}, {"measurement": "relative viability", "setting": "NCI-H647; first compound 0.04 µM", "result": 0.236}, {"measurement": "relative viability", "setting": "NCI-H647; first compound 0.1265 µM", "result": 0.159}, {"measurement": "relative viability", "setting": "NCI-H647; first compound 0.4 µM", "result": 0.161}, {"measurement": "relative viability", "setting": "NCI-H647; first compound 4 µM", "result": 0.146}, {"measurement": "relative viability", "setting": "NCI-H2347; first compound 0.04 µM", "result": 0.329}, {"measurement": "relative viability", "setting": "NCI-H2347; first compound 0.1265 µM", "result": 0.39}, {"measurement": "relative viability", "setting": "NCI-H2347; first compound 0.4 µM", "result": 0.248}, {"measurement": "relative viability", "setting": "NCI-H2347; first compound 4 µM", "result": 0.337}, {"measurement": "relative viability", "setting": "NCI-H1666; first compound 0.04 µM", "result": 0.831}, {"measurement": "relative viability", "setting": "NCI-H1666; first compound 0.1265 µM", "result": 0.805}, {"measurement": "relative viability", "setting": "NCI-H1666; first compound 0.4 µM", "result": 0.905}, {"measurement": "relative viability", "setting": "NCI-H1666; first compound 4 µM", "result": 0.788}, {"measurement": "relative viability", "setting": "NCI-H2405; first compound 0.04 µM", "result": 0.226}, {"measurement": "relative viability", "setting": "NCI-H2405; first compound 0.1265 µM", "result": 0.187}, {"measurement": "relative viability", "setting": "NCI-H2405; first compound 0.4 µM", "result": 0.229}, {"measurement": "relative viability", "setting": "NCI-H2405; first compound 4 µM", "result": 0.169}, {"measurement": "relative viability", "setting": "EPLC-272H; first compound 0.04 µM", "result": 0.459}, {"measurement": "relative viability", "setting": "EPLC-272H; first compound 0.1265 µM", "result": 0.284}, {"measurement": "relative viability", "setting": "EPLC-272H; first compound 0.4 µM", "result": 0.319}, {"measurement": "relative viability", "setting": "EPLC-272H; first compound 4 µM", "result": 0.341}, {"measurement": "relative viability", "setting": "HCC-827; first compound 0.04 µM", "result": 0.396}, {"measurement": "relative viability", "setting": "HCC-827; first compound 0.1265 µM", "result": 0.324}, {"measurement": "relative viability", "setting": "HCC-827; first compound 0.4 µM", "result": 0.344}, {"measurement": "relative viability", "setting": "HCC-827; first compound 4 µM", "result": 0.311}, {"measurement": "relative viability", "setting": "NCI-H1915; first compound 0.04 µM", "result": 0.307}, {"measurement": "relative viability", "setting": "NCI-H1915; first compound 0.1265 µM", "result": 0.308}, {"measurement": "relative viability", "setting": "NCI-H1915; first compound 0.4 µM", "result": 0.319}, {"measurement": "relative viability", "setting": "NCI-H1915; first compound 4 µM", "result": 0.278}, {"measurement": "relative viability", "setting": "NCI-H522; first compound 0.04 µM", "result": 0.775}, {"measurement": "relative viability", "setting": "NCI-H522; first compound 0.1265 µM", "result": 0.773}, {"measurement": "relative viability", "setting": "NCI-H522; first compound 0.4 µM", "result": 0.806}, {"measurement": "relative viability", "setting": "NCI-H522; first compound 4 µM", "result": 0.828}, {"measurement": "relative viability", "setting": "NCI-H520; first compound 0.04 µM", "result": 0.216}, {"measurement": "relative viability", "setting": "NCI-H520; first compound 0.1265 µM", "result": 0.227}, {"measurement": "relative viability", "setting": "NCI-H520; first compound 0.4 µM", "result": 0.248}, {"measurement": "relative viability", "setting": "NCI-H520; first compound 4 µM", "result": 0.136}, {"measurement": "relative viability", "setting": "NCI-H650; first compound 0.04 µM", "result": 0.45}, {"measurement": "relative viability", "setting": "NCI-H650; first compound 0.1265 µM", "result": 0.445}, {"measurement": "relative viability", "setting": "NCI-H650; first compound 0.4 µM", "result": 0.359}, {"measurement": "relative viability", "setting": "NCI-H650; first compound 4 µM", "result": 0.384}, {"measurement": "relative viability", "setting": "H3255; first compound 0.04 µM", "result": 0.432}, {"measurement": "relative viability", "setting": "H3255; first compound 0.1265 µM", "result": 0.347}, {"measurement": "relative viability", "setting": "H3255; first compound 0.4 µM", "result": 0.424}, {"measurement": "relative viability", "setting": "H3255; first compound 4 µM", "result": 0.346}, {"measurement": "relative viability", "setting": "201T; first compound 0.04 µM", "result": 0.624}, {"measurement": "relative viability", "setting": "201T; first compound 0.1265 µM", "result": 0.525}, {"measurement": "relative viability", "setting": "201T; first compound 0.4 µM", "result": 0.581}, {"measurement": "relative viability", "setting": "201T; first compound 4 µM", "result": 0.52}, {"measurement": "relative viability", "setting": "NCI-H322M; first compound 0.04 µM", "result": 0.277}, {"measurement": "relative viability", "setting": "NCI-H322M; first compound 0.1265 µM", "result": 0.262}, {"measurement": "relative viability", "setting": "NCI-H322M; first compound 0.4 µM", "result": 0.26}, {"measurement": "relative viability", "setting": "NCI-H322M; first compound 4 µM", "result": 0.24}, {"measurement": "relative viability", "setting": "COR-L 105; first compound 0.04 µM", "result": 0.348}, {"measurement": "relative viability", "setting": "COR-L 105; first compound 0.1265 µM", "result": 0.413}, {"measurement": "relative viability", "setting": "COR-L 105; first compound 0.4 µM", "result": 0.383}, {"measurement": "relative viability", "setting": "COR-L 105; first compound 4 µM", "result": 0.336}, {"measurement": "relative viability", "setting": "LC-2-ad; first compound 0.04 µM", "result": 0.583}, {"measurement": "relative viability", "setting": "LC-2-ad; first compound 0.1265 µM", "result": 0.55}, {"measurement": "relative viability", "setting": "LC-2-ad; first compound 0.4 µM", "result": 0.487}, {"measurement": "relative viability", "setting": "LC-2-ad; first compound 4 µM", "result": 0.492}, {"measurement": "relative viability", "setting": "NCI-H2087; first compound 0.04 µM", "result": 0.971}, {"measurement": "relative viability", "setting": "NCI-H2087; first compound 0.1265 µM", "result": 0.852}, {"measurement": "relative viability", "setting": "NCI-H2087; first compound 0.4 µM", "result": 0.894}, {"measurement": "relative viability", "setting": "NCI-H2087; first compound 4 µM", "result": 0.743}]}]}
